Patent publication US20260138959A1, “QUINAZOLINE DERIVATIVE COMPOUND AND USE THEREOF” (VORONOI INC., priority 2021, published 2026)

Assays:
c-KIT V560G/D816V = assay: Proliferation inhibitory activity on Ba/F3 cell (CellTiter-Glo, 72 hours), c-KIT V560G/D816V; format: cell-based; conditions: Mus musculus, BaF3, c-KIT V560G/D816V cells, read-out: Cell (nM) c-KIT V560G/D816V (GI50 class)
Description: (§1) Ba/F3-TEL-PDGFRα(WT), Ba/F3-TEL-PDGFβ(WT), Ba/F3-c-KIT(D816V) (Kyinno, #KC-0138), c-KIT V560G/D816V, c-KIT D814Y were seeded at 3×10^3/100 μl/well in a clear bottom white 96-well plate. A culture solution containing compounds of 12 concentrations (0.00001-2 mM) serially diluted in 3 folds and the DMSO control group was added at 0.5 μl/well each to a final concentration of 0.00005-10 μM, and then incubated in a CO2 incubator at 37° C. for 72 hours. After 72 hours, the plate treated with the compound was taken out, CellTiter-Glo® Assay (Promega) solution was treated with 100 μl/well, followed by mixing well. After mixing well for about 10 minutes at room temperature, […] was measured using a microplate reader. The data were presented as percentages in proportion to treated cells based on the vehicle, GI50 (nM) values were calculated using GraphPad Prism 8.3.0 (GraphPad software Inc., San Diego).
(§2) The inhibitory activities of Ba/F3 expressing PDGFR-α, PDGFR-β, c-KIT(D816V), c-KIT V560G/D816V, and c-KIT D814Y measured as described above were measured and shown in Table 7 below (A: GI50≤200 nM; B: 200 nM<GI50≤500 nM; C: GI50>500 nM).

Ba/F3-c-KIT(D816V) = assay: Proliferation inhibitory activity on Ba/F3 cell (CellTiter-Glo, 72 hours), c-KIT(D816V); format: cell-based; conditions: Mus musculus, BaF3, read-out: Ba/F3 (nM) c-KIT (D816V) (GI50 class)
Description: as §1, §2

SMILES	GI50 (c-KIT V560G/D816V) [nM]	GI50 (Ba/F3-c-KIT(D816V)) [nM]
COc1cc2c(-c3ccc(NC(=O)Cc4ccc(C(F)(F)F)cc4)cc3)ncnc2cc1OCc1cccnc1 [Example 29, N-(4-(6-methoxy-7-(pyridin-3-ylmethoxy)quinazolin-4-yl)phenyl)-2-(4-(trifluoromethyl)phenyl)acetamide]	≤ 200	≤ 200
COc1cc2c(-c3ccc(NC(=O)Cc4ccc(C(F)(F)F)cc4)cc3)ncnc2cc1OCCCN1CCN2CCCC2C1 (stereo not drawn) [Example 33, N-(4-(7-(3-(hexahydropyrrolo[1,2-a]pyrazin-2(1H)-yl)propoxy)-6-methoxyquinazolin-4-yl)phenyl)-2-(4-(trifluoromethyl)phenyl)acetamide]	≤ 200	≤ 200
COc1cc2c(-c3ccc(NC(=O)Cc4ccc(C(F)(F)F)cc4)cc3)ncnc2cc1OCCCN1CCn2c(nnc2C(F)(F)F)C1 [Example 34, N-(4-(6-methoxy-7-(3-(3-(trifluoromethyl)-5,6-dihydro-[1,2,4]triazolo[4,3-a]pyrazin-7(8H)-yl)propoxy)quinazolin-4-yl)phenyl)-2-(4-(trifluoromethyl)phenyl)acetamide]	≤ 200	≤ 200
COc1cc2c(-c3ccc(NC(=O)Cc4ccc(C(F)(F)F)cc4)cc3)ncnc2cc1OC[C@@H]1CCN(C(=O)OC(C)(C)C)C1 [Example 35, tert-butyl (R)-3-(((6-methoxy-4-(4-(2-(4-(trifluoromethyl)phenyl)acetamido)phenyl)quinazolin-7-yl)oxy)methyl)pyrrolidin-1-carboxylate]	> 500	≤ 200
COc1cc2c(-c3ccc(NC(=O)Cn4cc(C(C)C)nn4)cc3)ncnc2cc1OCC1CCNCC1 [Example 61, 2-(4-isopropyl-1H-1,2,3-triazole-1-yl)-N-(4-(6-methoxy-7-(piperidin-4-ylmethoxy)quinazolin-4-yl)phenyl)acetamide]		> 500
COc1cc2c(-c3ccc(NC(=O)Cn4cc(C(C)(C)C)nn4)cc3)ncnc2cc1OCC1CCNCC1 [Example 62, 2-(4-(tert-butyl)-1H-1,2,3-triazole-1-yl)-N-(4-(6-methoxy-7-(piperidin-4-ylmethoxy)quinazolin-4-yl)phenyl)acetamide]		> 500
CCN1CCC(COc2cc3ncnc(-c4ccc(NC(=O)Cn5cc(C(C)C)nn5)cc4)c3cc2OC)CC1 [Example 65, N-(4-(7-((1-ethylpiperidin-4-yl)methoxy)-6-methoxyquinazolin-4-yl)phenyl)-2-(4-isopropyl-1H-1,2,3-triazole-1-yl)acetamide]		≤ 200
CCN1CCC(COc2cc3ncnc(-c4ccc(NC(=O)Cn5cc(C(C)(C)C)nn5)cc4)c3cc2OC)CC1 [Example 66, 2-(4-(tert-butyl)-1H-1,2,3-triazole-1-yl)-N-(4-(7-((1-ethylpiperidin-4-yl)methoxy)-6-methoxyquinazolin-4-yl)phenyl)acetamide]		≤ 200
COc1cc2c(-c3ccc(NC(=O)Cn4cc(C(C)C)nn4)cc3)ncnc2cc1OCCCN1CCN(C)CC1 [Example 67, 2-(4-isopropyl-1H-1,2,3-triazole-1-yl)-N-(4-(6-methoxy-7-(3-(4-methylpiperazin-1-yl)propoxy)quinazolin-4-yl)phenyl)acetamide]		≤ 200
COc1cc2c(-c3ccc(NC(=O)Cn4cc(C(C)(C)C)nn4)cc3)ncnc2cc1OCCCN1CCN(C)CC1 [Example 68, 2-(4-(tert-butyl)-1H-1,2,3-triazole-1-yl)-N-(4-(6-methoxy-7-(3-(4-methylpiperazin-1-yl)propoxy)quinazolin-4-yl)phenyl)acetamide]		≤ 200
COc1cc2c(-c3ccc(NC(=O)Cc4ccc(C(F)(F)F)c(F)c4)cc3)ncnc2cc1OCC1CCNCC1 [Example 79, 2-(3-fluoro-4-(trifluoromethyl)phenyl)-N-(4-(6-methoxy-7-(piperidin-4-ylmethoxy)quinazolin-4-yl)phenyl)acetamide]		≤ 200
COc1cc2c(-c3ccc(NC(=O)CC4CCNCC4)cc3)ncnc2cc1OCCCN1CCN(C)CC1 [Example 86, N-(4-(6-methoxy-7-(3-(4-methylpiperazin-1-yl)propoxy)quinazolin-4-yl)phenyl)-2-(piperidin-4-yl)acetamide]		> 500
C=CCC(=O)Nc1ccc(-c2ncnc3cc(OCCCN4CCN(C)CC4)c(OC)cc23)cc1 [Example 87, N-(4-(6-methoxy-7-(3-(4-methylpiperazin-1-yl)propoxy)quinazolin-4-yl)phenyl)but-3-enamide]		≤ 200
COc1cc2ncnc(-c3ccc(NC(=O)Cc4ccc(C(F)(F)F)cc4)cc3)c2cc1OCCCN1CCN(C(C)=O)CC1 [Example 128, N-(4-(6-(3-(4-acetylpiperazin-1-yl)propoxy)-7-methoxyquinazolin-4-yl)phenyl)-2-(4-(trifluoromethyl)phenyl)acetamide]		≤ 200
COc1cc2ncnc(-c3ccc(NC(=O)Cc4ccc(C(F)(F)F)cc4)cc3)c2cc1OCCCNc1cnn(C)c1 [Example 155, N-(4-(7-methoxy-6-(3-((1-methyl-1H-pyrazol-4-yl)amino)propoxy)quinazolin-4-yl)phenyl)-2-(4-(trifluoromethyl)phenyl)acetamide]		≤ 200

The next lines start with the values.

GI50 (c-KIT V560G/D816V) [nM]	GI50 (Ba/F3-c-KIT(D816V)) [nM]	SMILES
200 to 500	≤ 200	COc1cc2c(-c3ccc(NC(=O)Cc4ccc(C(F)(F)F)cc4)cc3)ncnc2cc1OCCCCl [Example 23, N-(4-(7-(3-chloropropoxy)-6-methoxyquinazolin-4-yl)phenyl)-2-(4-(trifluoromethyl)phenyl)acetamide]
> 500	≤ 200	COc1cc2c(-c3ccc(NC(=O)Cc4ccc(C(F)(F)F)cc4)cc3)ncnc2cc1OC1CNC1 [Example 24, N-(4-(7-(azetidine-3-yloxy)-6-methoxyquinazolin-4-yl)phenyl)-2-(4-(trifluoromethyl)phenyl)acetamide]
≤ 200	≤ 200	COc1cc2c(-c3ccc(NC(=O)Cc4ccc(C(F)(F)F)cc4)cc3)ncnc2cc1OCCCNC1CC1 [Example 25, N-(4-(7-(3-(cyclopropylamino)propoxy)-6-methoxyquinazolin-4-yl)phenyl)-2-(4-(trifluoromethyl)phenyl)acetamide]
> 500	≤ 200	COc1ccc(CN2CC(Oc3cc4ncnc(-c5ccc(NC(=O)Cc6ccc(C(F)(F)F)cc6)cc5)c4cc3OC)C2)cc1 [Example 27, N-(4-(6-methoxy-7-((1-(4-methoxybenzyl)azetidin-3-yl)oxy)quinazolin-4-yl)phenyl)-2-(4-(trifluoromethyl)phenyl)acetamide]
> 500	≤ 200	COCCN1CC(Oc2cc3ncnc(-c4ccc(NC(=O)Cc5ccc(C(F)(F)F)cc5)cc4)c3cc2OC)C1 [Example 28, N-(4-(6-methoxy-7-((1-(2-methoxyethyl)azetidin-3-yl)oxy)quinazolin-4-yl)phenyl)-2-(4-(trifluoromethyl)phenyl)acetamide]
	200 to 500	COc1cc2ncnc(-c3ccc(NC(=O)Cc4ccc(C(F)(F)F)cc4)cc3)c2cc1OC1CN(C(=O)OC(C)(C)C)C1 [Example 135, tert-butyl 3-((7-methoxy-4-(4-(2-(4-(trifluoromethyl)phenyl)acetamido)phenyl)quinazolin-6-yl)oxy)azetidin-1-carboxylate]
	≤ 200	COc1cc2ncnc(-c3ccc(NC(=O)Cc4ccc(C(F)(F)F)cc4)cc3)c2cc1OC1CCN(C(=O)OC(C)(C)C)C1 (stereo not drawn) [Example 136, tert-butyl 3-((7-methoxy-4-(4-(2-(4-(trifluoromethyl)phenyl)acetamido)phenyl)quinazolin-6-yl)oxy)pyrrolidin-1-carboxylate]
	> 500	COc1cc2ncnc(-c3ccc(NC(=O)Cc4ccc(C(F)(F)F)cc4)cc3)c2cc1OCC1CCNCC1 [Example 146, N-(4-(7-methoxy-6-(piperidin-4-ylmethoxy)quinazolin-4-yl)phenyl)-2-(4-(trifluoromethyl)phenyl)acetamide]
	> 500	COc1cc2ncnc(-c3ccc(NC(=O)Cc4ccc(C(F)(F)F)cc4)cc3)c2cc1OCCCN1CC2(CNC2)C1 [Example 148, N-(4-(6-(3-(2,6-diazaspiro[3.3]heptane-2-yl)propoxy)-7-methoxyquinazolin-4-yl)phenyl)-2-(4-(trifluoromethyl)phenyl)acetamide]
	≤ 200	COc1cc2ncnc(-c3ccc(NC(=O)Cc4ccc(C(F)(F)F)cc4)cc3)c2cc1OCCCN1CC(N(C)C)C1 [Example 152, N-(4-(6-(3-(3-(dimethylamino)azetidin-1-yl)propoxy)-7-methoxyquinazolin-4-yl)phenyl)-2-(4-(trifluoromethyl)phenyl)acetamide]
	≤ 200	COc1cc2ncnc(-c3ccc(NC(=O)Cc4ccc(C(F)(F)F)cc4)cc3)c2cc1OC1COC1 [Example 153, N-(4-(7-methoxy-6-(oxetan-3-yloxy)quinazolin-4-yl)phenyl)-2-(4-(trifluoromethyl)phenyl)acetamide]
	≤ 200	COc1cc2ncnc(-c3ccc(NC(=O)Cc4ccc(C(F)(F)F)cc4)cc3)c2cc1OCCCNC1CC1 [Example 154, N-(4-(6-(3-(cyclopropylamino)propoxy)-7-methoxyquinazolin-4-yl)phenyl)-2-(4-(trifluoromethyl)phenyl)acetamide]
